From the supplement of paper PMC10307832

Key:
Experiment in all cases: relative viability (nuclei count vs DMSO), 5 days (fraction); higher = more cells survive
[1] = test system: NCI-H650
How it was run: (§1)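 Lung cancer cell lines, seeded in 1536-well plates, were treated the following day by pin tool with a single drug or with five library-drug doses (not always all listed) in √10 steps on top of a fixed anchor-drug dose. Cells were fixed and nuclei stained in one step after 5 days, and nuclei were counted. Relative viability is the nuclei count for treated wells divided by that for vehicle wells, reported as medians of duplicate plates.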

[2] = test system: NCI-H838
How it was run: as §1

[3] = test system: LC-2-ad
How it was run: as §1

[4] = test system: NCI-H1915
How it was run: as §1

[5] = test system: HARA
How it was run: as §1

[6] = test system: NCI-H2023
How it was run: as §1

[7] = test system: HOP-62
How it was run: as §1

[8] = test system: LU99A
How it was run: as §1

[9] = test system: NCI-H1651
How it was run: as §1

[10] = test system: NCI-H2085
How it was run: as §1

[11] = test system: HCC-44
How it was run: as §1

[12] = test system: NCI-H2126
How it was run: as §1

[13] = test system: NCI-H1993
How it was run: as §1

[14] = test system: ABC-1
How it was run: as §1

[15] = test system: HCC-15
How it was run: as §1

[16] = test system: NCI-H1355
How it was run: as §1

[17] = test system: PC-14
How it was run: as §1

[18] = test system: UMC-11
How it was run: as §1

[19] = test system: NCI-H2347
How it was run: as §1

[20] = test system: EPLC-272H
How it was run: as §1

[21] = test system: SW 1573
How it was run: as §1

[22] = test system: COR-L23
How it was run: as §1

Structure (SMILES): CC(=O)O[C@@]12CO[C@@H]1C[C@H](O)[C@@]1(C)C(=O)[C@H](O)C3=C(C)[C@@H](OC(=O)[C@H](O)[C@@H](NC(=O)OC(C)(C)C)c4ccccc4)C[C@@](O)([C@@H](OC(=O)c4ccccc4)[C@H]21)C3(C)C [Docetaxel] + C[C@@H](Oc1cc(-c2cnn(C3CCNCC3)c2)cnc1N)c1c(Cl)ccc(F)c1Cl [Crizotinib] (partner 1 µM)
- relative viability ([1]; first compound 0.0002 µM): 0.504
- relative viability ([1]; first compound 0.000632 µM): 0.356
- relative viability ([1]; first compound 0.002 µM): 0.253
- relative viability ([1]; first compound 0.006325 µM): 0.208
- relative viability ([1]; first compound 0.02 µM): 0.204
- relative viability ([2]; first compound 0.0002 µM): 0.856
- relative viability ([2]; first compound 0.000632 µM): 0.7
- relative viability ([2]; first compound 0.002 µM): 0.155
- relative viability ([2]; first compound 0.006325 µM): 0.201
- relative viability ([2]; first compound 0.02 µM): 0.124
- relative viability ([3]; first compound 0.0002 µM): 0.388
- relative viability ([3]; first compound 0.000632 µM): 0.342
- relative viability ([3]; first compound 0.002 µM): 0.318
- relative viability ([3]; first compound 0.006325 µM): 0.389
- relative viability ([3]; first compound 0.02 µM): 0.222
- relative viability ([4]; first compound 0.0002 µM): 0.892
- relative viability ([4]; first compound 0.000632 µM): 0.803
- relative viability ([4]; first compound 0.002 µM): 0.325
- relative viability ([4]; first compound 0.006325 µM): 0.181
- relative viability ([4]; first compound 0.02 µM): 0.141
- relative viability ([5]; first compound 0.0002 µM): 0.903
- relative viability ([5]; first compound 0.000632 µM): 0.364
- relative viability ([5]; first compound 0.002 µM): 0.312
- relative viability ([5]; first compound 0.006325 µM): 0.0907
- relative viability ([5]; first compound 0.02 µM): 0.104
- relative viability ([6]; first compound 0.0002 µM): 0.587
- relative viability ([6]; first compound 0.000632 µM): 0.451
- relative viability ([6]; first compound 0.002 µM): 0.123
- relative viability ([6]; first compound 0.006325 µM): 0.096
- relative viability ([6]; first compound 0.02 µM): 0.0789
- relative viability ([7]; first compound 0.0002 µM): 0.903
- relative viability ([7]; first compound 0.000632 µM): 0.386
- relative viability ([7]; first compound 0.02 µM): 0.129
- relative viability ([8]; first compound 0.0002 µM): 0.522
- relative viability ([8]; first compound 0.000632 µM): 0.401
- relative viability ([8]; first compound 0.002 µM): 0.367
- relative viability ([8]; first compound 0.006325 µM): 0.278
- relative viability ([8]; first compound 0.02 µM): 0.196
- relative viability ([9]; first compound 0.0002 µM): 0.835
- relative viability ([9]; first compound 0.000632 µM): 0.876
- relative viability ([9]; first compound 0.002 µM): 0.612
- relative viability ([9]; first compound 0.006325 µM): 0.168
- relative viability ([9]; first compound 0.02 µM): 0.167
- relative viability ([10]; first compound 0.0002 µM): 0.63
- relative viability ([10]; first compound 0.000632 µM): 0.706
- relative viability ([10]; first compound 0.002 µM): 0.737
- relative viability ([10]; first compound 0.006325 µM): 0.415
- relative viability ([10]; first compound 0.02 µM): 0.317
- relative viability ([11]; first compound 0.0002 µM): 0.805
- relative viability ([11]; first compound 0.000632 µM): 0.536
- relative viability ([11]; first compound 0.002 µM): 0.483
- relative viability ([11]; first compound 0.006325 µM): 0.195
- relative viability ([11]; first compound 0.02 µM): 0.12
- relative viability ([12]; first compound 0.0002 µM): 1.01
- relative viability ([12]; first compound 0.000632 µM): 1.03
- relative viability ([12]; first compound 0.002 µM): 0.632
- relative viability ([12]; first compound 0.006325 µM): 0.382
- relative viability ([12]; first compound 0.02 µM): 0.322
- relative viability ([13]; first compound 0.0002 µM): 0.93
- relative viability ([13]; first compound 0.000632 µM): 0.787
- relative viability ([13]; first compound 0.002 µM): 0.791
- relative viability ([13]; first compound 0.006325 µM): 0.537
- relative viability ([13]; first compound 0.02 µM): 0.508
- relative viability ([14]; first compound 0.0002 µM): 1.04
- relative viability ([14]; first compound 0.000632 µM): 0.78
- relative viability ([14]; first compound 0.002 µM): 0.274
- relative viability ([14]; first compound 0.006325 µM): 0.275
- relative viability ([14]; first compound 0.02 µM): 0.242
- relative viability ([15]; first compound 0.0002 µM): 0.818
- relative viability ([15]; first compound 0.000632 µM): 0.452
- relative viability ([15]; first compound 0.002 µM): 0.172
- relative viability ([15]; first compound 0.006325 µM): 0.207
- relative viability ([15]; first compound 0.02 µM): 0.14
- relative viability ([16]; first compound 0.0002 µM): 1.01
- relative viability ([16]; first compound 0.000632 µM): 0.893
- relative viability ([16]; first compound 0.002 µM): 0.456
- relative viability ([16]; first compound 0.006325 µM): 0.241
- relative viability ([16]; first compound 0.02 µM): 0.198
- relative viability ([17]; first compound 0.0002 µM): 0.932
- relative viability ([17]; first compound 0.000632 µM): 0.861
- relative viability ([17]; first compound 0.002 µM): 0.317
- relative viability ([17]; first compound 0.006325 µM): 0.0812
- relative viability ([17]; first compound 0.02 µM): 0.0748
- relative viability ([18]; first compound 0.0002 µM): 0.612
- relative viability ([18]; first compound 0.000632 µM): 0.485
- relative viability ([18]; first compound 0.002 µM): 0.122
- relative viability ([18]; first compound 0.006325 µM): 0.108
- relative viability ([18]; first compound 0.02 µM): 0.084
- relative viability ([19]; first compound 0.0002 µM): 0.736
- relative viability ([19]; first compound 0.000632 µM): 0.702
- relative viability ([19]; first compound 0.002 µM): 0.695
- relative viability ([19]; first compound 0.006325 µM): 0.589
- relative viability ([19]; first compound 0.02 µM): 0.422
- relative viability ([20]; first compound 0.0002 µM): 0.832
- relative viability ([20]; first compound 0.000632 µM): 0.547
- relative viability ([20]; first compound 0.002 µM): 0.321
- relative viability ([20]; first compound 0.006325 µM): 0.0867
- relative viability ([20]; first compound 0.02 µM): 0.1
- relative viability ([21]; first compound 0.0002 µM): 0.737
- relative viability ([21]; first compound 0.000632 µM): 0.307
- relative viability ([21]; first compound 0.006325 µM): 0.218
- relative viability ([21]; first compound 0.02 µM): 0.203
- relative viability ([22]; first compound 0.0002 µM): 0.536
- relative viability ([22]; first compound 0.000632 µM): 0.483
- relative viability ([22]; first compound 0.002 µM): 0.111
- relative viability ([22]; first compound 0.006325 µM): 0.132
- relative viability ([22]; first compound 0.02 µM): 0.0806
